Where two headings read alike, the source gives them in different places.
Legend:
human MR = target: T1, human MR (Homo sapiens, UniProt P08235); test: Mineralocorticoid Receptor Binding Assay ([3H]-aldosterone)
T1 construct: The full length human MR gene is cloned from a human kidney or human brain cDNA library; His tag from the pAcHLT vector (own knowledge); made in house; host or cells: Sf9 insect cells (baculovirus, pAcHLT transfer vector)
T1 sequence (P08235 1-984): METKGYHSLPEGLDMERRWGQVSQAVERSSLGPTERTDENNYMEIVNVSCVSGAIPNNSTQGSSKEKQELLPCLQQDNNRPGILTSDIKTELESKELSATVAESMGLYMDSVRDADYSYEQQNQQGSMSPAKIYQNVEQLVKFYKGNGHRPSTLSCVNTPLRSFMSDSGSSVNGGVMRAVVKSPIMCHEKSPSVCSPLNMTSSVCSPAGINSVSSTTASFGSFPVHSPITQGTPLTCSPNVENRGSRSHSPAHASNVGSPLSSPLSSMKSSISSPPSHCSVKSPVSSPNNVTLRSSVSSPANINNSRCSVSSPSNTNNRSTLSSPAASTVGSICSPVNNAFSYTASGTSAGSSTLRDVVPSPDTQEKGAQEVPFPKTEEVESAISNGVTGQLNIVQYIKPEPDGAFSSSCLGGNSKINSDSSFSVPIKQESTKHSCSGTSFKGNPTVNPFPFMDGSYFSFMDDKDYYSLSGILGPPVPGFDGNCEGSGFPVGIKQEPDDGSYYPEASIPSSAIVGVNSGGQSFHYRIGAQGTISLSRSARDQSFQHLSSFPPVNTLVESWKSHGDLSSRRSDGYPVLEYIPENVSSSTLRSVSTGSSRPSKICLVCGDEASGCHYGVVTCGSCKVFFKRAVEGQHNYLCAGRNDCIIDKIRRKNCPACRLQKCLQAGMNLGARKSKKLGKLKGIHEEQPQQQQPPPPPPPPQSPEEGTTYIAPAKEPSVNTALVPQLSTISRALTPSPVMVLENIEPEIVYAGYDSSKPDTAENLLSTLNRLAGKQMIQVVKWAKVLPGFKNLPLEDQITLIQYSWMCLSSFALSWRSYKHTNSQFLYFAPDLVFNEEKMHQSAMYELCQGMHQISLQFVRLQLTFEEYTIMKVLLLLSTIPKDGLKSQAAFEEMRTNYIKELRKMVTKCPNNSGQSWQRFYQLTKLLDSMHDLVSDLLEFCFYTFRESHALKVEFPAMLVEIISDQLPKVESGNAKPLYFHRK
In short: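 Lysate supernatant of Sf9 cells expressing full-length human MR (20-25 μg protein) was incubated with 0.5 nM [3H]-aldosterone and test compound in molybdate/Tris/phosphate/glycerol buffer, pH 7.5, ~16 h at 4 °C. Bound ligand was filtered and counted by scintillation; IC50 is the concentration halving [3H]-aldosterone binding.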

glucocorticoid receptor = target: T2, glucocorticoid receptor (Homo sapiens, UniProt P04150); test: Glucocorticoid Receptor Binding Assay ([3H]-dexamethasone, A549 cell extract); conditions: [3H]-dexamethasone binding, read-out: GR Ki
T2 construct: containing 50-200 ug of A549 cell extract and 1.86 nM [^3H]-dexamethasone; host or cells: A549 human lung epithelial cells (sonicated cell extract)
T2 sequence (P04150 1-777): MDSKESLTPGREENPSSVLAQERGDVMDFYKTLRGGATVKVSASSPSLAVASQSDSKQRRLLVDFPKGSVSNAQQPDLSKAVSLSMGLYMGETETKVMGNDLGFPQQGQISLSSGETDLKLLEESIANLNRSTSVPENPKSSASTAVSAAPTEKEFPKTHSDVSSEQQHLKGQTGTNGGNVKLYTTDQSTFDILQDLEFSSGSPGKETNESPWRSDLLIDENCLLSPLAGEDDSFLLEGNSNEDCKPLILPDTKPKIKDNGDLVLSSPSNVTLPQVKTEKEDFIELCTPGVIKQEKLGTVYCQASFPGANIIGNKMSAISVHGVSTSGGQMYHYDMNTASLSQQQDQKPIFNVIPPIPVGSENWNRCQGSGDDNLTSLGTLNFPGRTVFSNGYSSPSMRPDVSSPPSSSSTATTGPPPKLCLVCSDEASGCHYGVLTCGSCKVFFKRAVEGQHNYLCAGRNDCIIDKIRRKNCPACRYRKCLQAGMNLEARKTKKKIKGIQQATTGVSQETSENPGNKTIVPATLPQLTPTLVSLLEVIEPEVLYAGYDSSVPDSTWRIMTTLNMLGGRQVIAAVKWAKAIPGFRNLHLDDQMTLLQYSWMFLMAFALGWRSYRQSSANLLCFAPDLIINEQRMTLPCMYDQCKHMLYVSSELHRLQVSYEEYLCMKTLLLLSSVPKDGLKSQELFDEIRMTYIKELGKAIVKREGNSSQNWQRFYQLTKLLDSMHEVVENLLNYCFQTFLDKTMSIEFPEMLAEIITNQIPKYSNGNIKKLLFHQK
In short: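 A549 cell extract (50–200 ug) incubated with 1.86 nM [3H]-dexamethasone and test compound for 16 h at 4 °C in Tris-HCl pH 7.2 buffer with glycerol and molybdate. Unbound radioligand removed by dextran-coated charcoal, then supernatant bound counts measured by scintillation.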

[1] = [3H]-aldosterone binding, human MR expressed in Sf9 cells, read-out: MR Ki

Row | Compound | melting point | Ki (human MR; [1]) | Ki (glucocorticoid receptor) | Ki (human MR)
1 | O=S(=O)(c1ccccc1C=C1c2ccccc2CCc2ccccc21)N1CCOCC1 [Example 8, 4-[2-(10,11-Dihydro-dibenzo[a,d]cyclohepten-5-ylidenemethyl)-benzenesulfonyl]-morpholine] | 139.3 °C | – | – | –
2 | Cc1cc(S(=O)(=O)N(C)C)c(C=C2c3ccccc3CCc3ccccc32)cc1Cl [Example 10, 4-Chloro-2-(10,11-dihydro-dibenzo[a,d]cyclohepten-5-ylidenemethyl)-5,N,N-trimethylbenzenesulfonamide] | 199.9 °C | – | – | –
3 | Cc1cc(S(=O)(=O)N2CCOCC2)c(C=C2c3ccccc3CCc3ccccc32)cc1Cl [Example 12, 4-[4-Chloro-2-(10,11-dihydro-dibenzo[a,d]cyclohepten-5-ylidenemethyl)-5-methyl-benzenesulfonyl]-morpholine] | 194.7 °C | – | – | –
4 | Cc1ccc(C=C2c3ccccc3CCc3ccccc32)c(S(=O)(=O)Nc2ccccc2)c1 [Example 13] | 220.4 °C | – | – | –
5 | Cc1ccc(C=C2c3ccccc3CCc3ccccc32)c(S(=O)(=O)NC2CC2)c1 [Example 14, N-Cyclopropyl-2-(10,11-dihydro-dibenzo[a,d]cyclohepten-5-ylidenemethyl)-5-methyl-benzenesulfonamide] | 160.8 °C | – | – | –
6 | Cc1ccc(C=C2c3ccccc3CCc3ccccc32)c(S(=O)(=O)NCc2ccccc2)c1 [Example 15, N-Benzyl-2-(10,11-dihydro-dibenzo[a,d]cyclohepten-5-ylidenemethyl)-5-methyl-benzenesulfonamide] | 138.3 °C | – | – | –
7 | CCNS(=O)(=O)c1cc(C)ccc1C=C1c2ccccc2CCc2ccccc21 [Example 17, 2-(10,11-Dihydro-dibenzo[a,d]cyclohepten-5-ylidenemethyl)-N-ethyl-5-methyl-benzenesulfonamide] | 172.4 °C | – | – | –
8 | Cc1ccc(C=C2c3ccccc3CCc3ccccc32)c(S(=O)(=O)N(C)C)c1 [Example 19, 2-(10,11-Dihydro-dibenzo[a,d]cyclohepten-5-ylidenemethyl)-5,N,N-trimethyl-benzenesulfonamide] | 186.6 °C | – | – | –
9 | CS(=O)(=O)Nc1cccc(/C(F)=C2\c3ccccc3COc3ccccc32)c1 [Example 806] | – | < 500 nM | < 500 nM | –
10 | C/C(=C1/c2ccccc2COc2cc(F)ccc21)c1cccc(NS(C)(=O)=O)c1 [Example 807] | – | < 500 nM | < 500 nM | –
11 | C/C(=C1\c2ccccc2COc2cc(F)ccc21)c1cccc(NS(C)(=O)=O)c1 [Example 808] | – | < 500 nM | < 500 nM | –
12 | C/C(=C1/c2ccc(F)cc2COc2cc(F)ccc21)c1cccc(NS(C)(=O)=O)c1 [Example 809] | – | < 500 nM | < 500 nM | –
13 | C/C(=C1\c2ccc(F)cc2COc2cc(F)ccc21)c1cccc(NS(C)(=O)=O)c1 [Example 810] | – | < 500 nM | < 500 nM | –
14 | CC/C(=C1\c2ccccc2COc2cc(F)ccc21)c1cccc(NS(C)(=O)=O)c1 [Example 811] | – | < 500 nM | < 500 nM | –
15 | CC/C(=C1/c2ccccc2COc2cc(F)ccc21)c1cccc(NS(C)(=O)=O)c1 [Example 812] | – | < 500 nM | < 500 nM | –
16 | C/C(=C1\c2ccccc2COc2cc(OCC3CC3)ccc21)c1cccc(NS(C)(=O)=O)c1 [Example 813] | – | < 500 nM | < 500 nM | –
17 | C/C(=C1/c2ccccc2COc2cc(OCC3CC3)ccc21)c1cccc(NS(C)(=O)=O)c1 [Example 814] | – | < 500 nM | < 500 nM | –
18 | COc1ccc2c(c1)COc1ccccc1/C2=C(/C)c1cccc(NS(C)(=O)=O)c1 [Example 817] | – | < 500 nM | < 500 nM | –
19 | COc1ccc2c(c1)COc1ccccc1/C2=C(\C)c1cccc(NS(C)(=O)=O)c1 [Example 818] | – | < 500 nM | < 500 nM | –
20 | COc1ccc2c(c1)COc1cc(F)ccc1/C2=C(/C)c1cccc(NS(C)(=O)=O)c1 [Example 819] | – | – | < 500 nM | < 500 nM

Row | Compound | melting point | Ki (human MR; [1]) | Ki (glucocorticoid receptor) | Ki (human MR)
21 | COc1ccc2c(c1)COc1cc(F)ccc1/C2=C(\C)c1cccc(NS(C)(=O)=O)c1 [Example 820] | – | – | < 500 nM | < 500 nM
22 | CC/C(=C1/c2ccc(OC)cc2COc2ccccc21)c1cccc(NS(C)(=O)=O)c1 [Example 821] | – | < 500 nM | < 500 nM | –
23 | CC/C(=C1\c2ccc(OC)cc2COc2ccccc21)c1cccc(NS(C)(=O)=O)c1 [Example 822] | – | < 500 nM | < 500 nM | –
24 | CC/C(=C1/c2ccc(OC)cc2COc2cc(F)ccc21)c1cccc(NS(C)(=O)=O)c1 [Example 823] | – | < 500 nM | < 500 nM | –
25 | CC/C(=C1\c2ccc(OC)cc2COc2cc(F)ccc21)c1cccc(NS(C)(=O)=O)c1 [Example 824] | – | < 500 nM | < 500 nM | –
26 | COc1ccc2c(c1)CCc1cc(C)ccc1C2=C(C)c1cccc(NS(C)(=O)=O)c1 [Example 827] | – | < 500 nM | < 500 nM | –
27 | COc1ccc2c(c1)CCc1cc(C)ccc1/C2=C(/C)c1cccc(NS(C)(=O)=O)c1 [Example 828] | – | < 500 nM | < 500 nM | –
28 | COc1ccc2c(c1)CCc1cc(C)ccc1/C2=C(\C)c1cccc(NS(C)(=O)=O)c1 [Example 829] | – | < 500 nM | < 500 nM | –
29 | CC(=C1c2ccc(C)cc2CCc2cc(F)ccc21)c1cccc(NS(C)(=O)=O)c1 [Example 830] | – | < 500 nM | < 500 nM | –
30 | C/C(=C1\c2ccc(C)cc2CCc2cc(F)ccc21)c1cccc(NS(C)(=O)=O)c1 [Example 831] | – | < 500 nM | < 500 nM | –
31 | C/C(=C1/c2ccc(C)cc2CCc2cc(F)ccc21)c1cccc(NS(C)(=O)=O)c1 [Example 832] | – | < 500 nM | < 500 nM | –
32 | CCC(=C1c2ccc(C)cc2CCc2cc(F)ccc21)c1cccc(NS(C)(=O)=O)c1 [Example 833] | – | < 500 nM | < 500 nM | –
33 | C/C(=C1/c2ccc(F)cc2CCc2ncccc21)c1cc(F)cc(NS(C)(=O)=O)c1 [Example 836] | – | < 500 nM | < 500 nM | –
34 | C/C(=C1\c2ccc(F)cc2CCc2ncccc21)c1cc(F)cc(NS(C)(=O)=O)c1 [Example 837] | – | < 500 nM | < 500 nM | –
35 | C/C(=C1/c2ccccc2COc2cc(F)ccc21)c1ccc2[nH]c(=O)[nH]c2c1 [Example 838] | – | < 500 nM | < 500 nM | –
36 | C/C(=C1\c2ccccc2COc2cc(F)ccc21)c1ccc2[nH]c(=O)[nH]c2c1 [Example 839] | – | < 500 nM | < 500 nM | –
37 | COc1ccc2c(c1)CSc1ccccc1C2=C(C)c1cccc(NS(C)(=O)=O)c1 [Example 840] | – | < 500 nM | < 500 nM | –
38 | COc1ccc2c(c1)CSc1ccccc1/C2=C(/C)c1cccc(NS(C)(=O)=O)c1 [Example 841] | – | < 500 nM | < 500 nM | –
39 | COc1ccc2c(c1)CSc1ccccc1/C2=C(\C)c1cccc(NS(C)(=O)=O)c1 [Example 842] | – | < 500 nM | < 500 nM | –
